Test results reported in ChEMBL document CHEMBL5346948, “Expanding Chemical Probe Space: Quality Criteria for Covalent and Degrader Probes” (J Med Chem, 2023).

Columns and labels:
[1] = tested on: GTPase KRas (Homo sapiens), P01116 [G12C]; test: Binding affinity to Hexahistidine-tagged recombinant human KRAS G12C mutant (1 to 169 residues) expressed in Escherichia coli assessed as kinact/Ki ratio
[2] = tested on: GTPase KRas (Homo sapiens), P01116 [G12C]; test: Binding affinity to KRAS G12 mutant (unknown origin) assessed as kinact/Ki ratio
[3] = target: Cereblon/Bromodomain-containing protein 9 (Homo sapiens); test: PROTAC activity at CRBN/BRD9 in human HeLa cells assessed as protein degradation by Western blot analysis
[4] = tested on: Cereblon/Bromodomain-containing protein 9 (Homo sapiens); test: PROTAC activity at CRBN/BRD9 in human HeLa cells assessed as induction of protein degradation by measuring maximal degradation relative to control
[5] = target: T1, von Hippel-Lindau disease tumor suppressor/Bcl-2-like protein 1 (Homo sapiens, UniProt Q07817+P40337); test: Protac activity at VHL/BCL-XL in human MOLT-4 cells assessed as induction of BCL-XL degradation incubated for 16 hrs by immunoblot analysis; format: cell-based
[6] = target: T1, von Hippel-Lindau disease tumor suppressor/Bcl-2-like protein 1; test: Protac activity at VHL/BCL-XL in human MOLT-4 cells assessed as induction of protein degradation by measuring maximal degradation relative to control; format: cell-based
[7] = target: von Hippel-Lindau disease tumor suppressor/SWI/SNF-related matrix-associated actin-dependent regulator of chromatin subfamily A member 2 (Homo sapiens) (UniProt P51531+P40337); test: PROTAC activity at SMARCA2/VHL in human MV4-11 cells assessed as induction of protein degradation by measuring maximal protein degradation relative to control; format: cell-based
[8] = target: T2, Protein cereblon/RAC-alpha serine/threonine-protein kinase (Homo sapiens, UniProt P31749+Q96SW2); test: Protac activity at CRBN/Akt1 in human JeKo-1 cells assessed as Akt1 degradation by immunoblot analysis; format: cell-based
[9] = target: T2, Protein cereblon/RAC-alpha serine/threonine-protein kinase; test: Protac activity at CRBN/Akt1 in human JeKo-1 cells assessed as induction of Akt1 degradation by measuring maximal protein degradation relative to control; format: cell-based
[10] = target: T3, Zinc finger protein Helios (Homo sapiens, UniProt Q9UKS7); test: Induction of IKZF2 degradation in human GripTite 293 MSR cells; format: cell-based
[11] = target: T3, Zinc finger protein Helios; test: Induction of IKZF2 degradation in human GripTite 293 MSR cells assessed as maximal degradation relative to control; format: cell-based
[12] = target: Tyrosine-protein kinase JAK1 (Homo sapiens, UniProt P23458); test: Inhibition of JAK1 (unknown origin)
[13] = target: T4, Estrogen receptor (Homo sapiens) (UniProt P03372); test: Induction of ERalpha degradation in human MCF7 cells assessed as maximal degradation relative to control; format: cell-based
T4 sequence (whole entry): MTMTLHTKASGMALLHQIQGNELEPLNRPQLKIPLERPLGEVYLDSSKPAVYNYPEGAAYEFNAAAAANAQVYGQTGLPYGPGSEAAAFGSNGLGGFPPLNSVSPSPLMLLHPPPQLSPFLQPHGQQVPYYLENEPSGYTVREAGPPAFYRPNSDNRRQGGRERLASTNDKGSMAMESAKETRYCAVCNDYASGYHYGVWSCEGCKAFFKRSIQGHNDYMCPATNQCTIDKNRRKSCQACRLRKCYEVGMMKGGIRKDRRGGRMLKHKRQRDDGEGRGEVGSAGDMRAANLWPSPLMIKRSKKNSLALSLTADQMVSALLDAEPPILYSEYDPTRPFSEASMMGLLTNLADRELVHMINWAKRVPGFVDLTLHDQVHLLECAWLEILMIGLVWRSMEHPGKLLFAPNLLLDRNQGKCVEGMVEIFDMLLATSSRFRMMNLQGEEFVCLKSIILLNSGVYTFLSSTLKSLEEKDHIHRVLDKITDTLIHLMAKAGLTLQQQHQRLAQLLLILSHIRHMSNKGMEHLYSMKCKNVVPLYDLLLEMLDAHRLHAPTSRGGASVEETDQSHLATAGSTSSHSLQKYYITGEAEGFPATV

[14] = target: T5, B-cell lymphoma 6 protein (Homo sapiens, UniProt P41182); test: Induction of BCL6 degradation in human SU-DHL-4 cells; format: cell-based
[15] = target: T5, B-cell lymphoma 6 protein; test: Induction of BCL6 degradation in human SU-DHL-4 cells assessed as maximal degradation relative to control; format: cell-based

SMILES: C=CC(=O)N1CC(N2CCN(C(=O)CNc3cc(C4(C)CC4)c(Cl)cc3O)CC2)C1
- Ratio [1]: 250 s⁻¹ M⁻¹

SMILES: C=CC(=O)N1CCN(c2nc(OC[C@@H]3CCCN3C)nc3c(F)c(-c4nc(N)cc(C)c4C(F)(F)F)c(Cl)cc23)[C@@H](C)C1
- Ratio [2]: 27000 s⁻¹ M⁻¹

SMILES: COc1cc(-c2cn(C)c(=O)c3cnc(N4CCC4)cc23)cc(OC)c1CN1CCC(CN2CCC3(CC2)CN(c2ccc4c(c2)C(=O)N([C@H]2CCC(=O)NC2=O)C4)C3)CC1
- DC50 [3]: < 1 nM
- Emax [4]: 97%

SMILES: Cc1ncsc1-c1ccc([C@H](C)NC(=O)[C@@H]2C[C@@H](O)CN2C(=O)[C@@H](NC(=O)CCCCCC(=O)N2CCN(CC[C@H](CSc3ccccc3)Nc3ccc(S(=O)(=O)NC(=O)c4ccc(N5CCN(CC6=C(c7ccc(Cl)cc7)CCC(C)(C)C6)CC5)cc4)cc3S(=O)(=O)C(F)(F)F)CC2)C(C)(C)C)cc1 [DT-2216]
- DC50 [5]: 63 nM
- Emax [6]: 91%

SMILES: Cc1ncsc1-c1ccc([C@H](CC[C@H](C)CCN2CCC(c3ccc4c(c3)n(C3CCCC3)c3nc(=O)c5c(Br)cccc5n43)CC2)NC(=O)[C@@H]2C[C@@H](O)CN2C(=O)[C@@H](NC(=O)C2(F)CC2)C(C)(C)C)cc1
- Emax [7]: 81%

SMILES: Cc1ncsc1-c1ccc([C@H](C)NC(=O)[C@@H]2C[C@@H](O)CN2C(=O)[C@@H](NC(=O)CCCCCCCCCCNC(=O)CCc2cccc(-c3ccc4nc(-c5cccnc5N)n(-c5ccc(C6(N)CCC6)cc5)c4n3)c2)C(C)(C)C)cc1
- DC50 [8]: 23 nM
- Emax [9]: > 80%

SMILES: O=C1CCC(N2Cc3cc(C4CCN(Cc5ccccc5)CC4)ccc3C2=O)C(=O)N1 (centres undefined)
- DC50 [10]: 11 nM
- Emax [11]: 69%

SMILES: C=CS(=O)(=O)NC1CCN(C(=O)CNc2cc(I)c(Cl)cc2O)CC1
- Ratio [1]: 0.33 s⁻¹ M⁻¹

SMILES: CS(=O)(=O)N1CC[C@H](C#CC(=O)N2CCC[C@@H](c3ccc(Cl)c(Cl)c3)C2)C1
- IC50 [12]: 32 nM

SMILES: O=C1CC[C@H](N2Cc3cc(N4CCN(CC5CCN(c6ccc([C@@H]7c8ccc(O)cc8CC[C@@H]7c7ccccc7)cc6)CC5)CC4)ccc3C2=O)C(=O)N1
- Emax [13]: 80%

SMILES: C=CC(=O)N1CCN(c2ncnc3c(F)c(-c4c(O)cccc4F)c(Cl)cc23)CC1
- Ratio [1]: 1100 s⁻¹ M⁻¹

SMILES: CNC(=O)COc1cc2cc(Nc3nc(N4C[C@H](C)C[C@H](C)C4)ncc3Cl)ccc2n(C)c1=O
- DC50 [14]: 20 nM
- Emax [15]: > 80%

SMILES: COc1cc(-c2cn(C)c(=O)c(C)c2C)cc(OC)c1CN1CC[C@H](N2CCN(c3ccc(N[C@H]4CCC(=O)NC4=O)cc3F)CC2)C(F)(F)C1 [SENDEGOBRESIB]
- DC50 [3]: 3 nM
- Emax [4]: 96%
